Results from publication PMC9137614, “TXH11106: A Third-Generation MreB Inhibitor with Enhanced Activity against a Broad Range of Gram-Negative Bacterial Pathogens” (Antibiotics, 2022).
Like-named read-outs stand apart in the source and are kept apart here.

Target: T1, MreB (EcMreB) (Escherichia coli, UniProt P0A9X4)
T1 construct: N-terminal 8× His-tagged E. coli MreB (mreB from ATCC 25922), wild-type
Test: malachite green ATPase assay with purified EcMreB; Eadie–Hofstee kinetics
Format: biochemical

T1 sequence (P0A9X4 whole entry): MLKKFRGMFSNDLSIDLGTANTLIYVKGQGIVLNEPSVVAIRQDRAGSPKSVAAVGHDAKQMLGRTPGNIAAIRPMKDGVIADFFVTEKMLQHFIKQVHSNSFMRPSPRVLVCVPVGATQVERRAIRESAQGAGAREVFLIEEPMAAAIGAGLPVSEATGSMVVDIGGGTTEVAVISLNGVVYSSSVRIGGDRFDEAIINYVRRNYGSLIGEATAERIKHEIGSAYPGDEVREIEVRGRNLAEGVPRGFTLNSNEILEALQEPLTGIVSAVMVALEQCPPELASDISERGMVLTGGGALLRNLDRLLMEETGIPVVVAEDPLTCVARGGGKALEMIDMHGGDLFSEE

Structure (SMILES)	IC50 (read-out: IC50)	IC50
NC1CCCc2c1[nH]c1ccc(Br)cc21 (stereo not drawn) [CBR-4830]	49 ± 8 µM	
N=C(N)SCc1ccc(Cl)c(Cl)c1 [A22]		447 ± 87 µM
NC1CCCc2c1[nH]c1ccc(Cl)c(Cl)c21 (stereo not drawn) [compound 4, 5,6-dichloro-2,3,4,9-tetrahydro-1H-carbazol-1-amine]	14 ± 2 µM	
